Source: patent US20260159498A1, “AKT3 MODULATORS” (GEORGIAMUNE LLC, priority 2021, published 2026)
pIC50: −log10 of the molar value.

Each compound was assayed against T1, Akt3 (Homo sapiens, UniProt Q9Y243) (assay: Akt3 inhibition activity).
T1 construct: endogenous in cells; host or cells: human CD4+/CD45RA+/CD25- naive T cells under Treg induction conditions
Type: cell-based

T1 sequence (Q9Y243 whole entry): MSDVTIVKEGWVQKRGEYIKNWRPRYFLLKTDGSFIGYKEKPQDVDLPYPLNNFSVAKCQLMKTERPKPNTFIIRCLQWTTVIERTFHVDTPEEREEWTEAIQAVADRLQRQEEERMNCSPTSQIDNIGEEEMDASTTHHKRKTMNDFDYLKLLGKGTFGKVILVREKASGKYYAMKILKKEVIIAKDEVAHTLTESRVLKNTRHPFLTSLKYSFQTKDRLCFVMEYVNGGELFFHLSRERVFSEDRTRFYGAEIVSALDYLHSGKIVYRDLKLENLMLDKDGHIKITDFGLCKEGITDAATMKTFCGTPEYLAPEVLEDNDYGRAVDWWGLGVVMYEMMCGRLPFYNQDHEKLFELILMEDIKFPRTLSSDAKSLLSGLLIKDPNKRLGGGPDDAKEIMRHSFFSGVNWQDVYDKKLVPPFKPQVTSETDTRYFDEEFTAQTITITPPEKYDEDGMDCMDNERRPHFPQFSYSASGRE

| pIC50 | Structure (SMILES) |
| --- | --- |
| > 5.30 | Cc1cc(Nc2ccc(-c3nc4ccc(Nc5ccnc(C)c5)cc4o3)cc2)ccn1 [Compound 41, N-(2-methylpyridin-4-yl)-2-(4-((2-methylpyridin-4-yl)amino)phenyl)benzo[d]oxazol-6-amine] |
| > 6.00 | Cc1cc(Nc2ccncc2)cc2c1C(=O)N(c1cccc(Nc3ccncc3)c1)C2 [Compound 30, 7-methyl-5-(pyridin-4-ylamino)-2-(3-(pyridin-4-ylamino)phenyl)isoindolin-1-one] |
| > 6.00 | Cc1ccc(N2Cc3cc(Nc4ccncc4)ccc3C2=O)cc1Nc1ccncc1 [Compound 27, 2-(4-methyl-3-(pyridin-4-ylamino)phenyl)-5-(pyridin-4-ylamino)isoindolin-1-one] |
| > 5.30 | Cc1cc(Nc2ccc(-c3nc4cc(Nc5ccnc(C)c5)ccc4o3)cc2)ccn1 [Compound 39, N-(2-methylpyridin-4-yl)-2-(4-((2-methylpyridin-4-yl)amino)phenyl)benzo[d]oxazol-5-amine] |
| > 5.30 | Cc1cc(Nc2cccc(-c3nc4ccc(Nc5ccnc(C)c5)cc4o3)c2)ccn1 [Compound 42, N-(2-methylpyridin-4-yl)-2-(3-((2-methylpyridin-4-yl)amino)phenyl)benzo[d]oxazol-6-amine] |
| > 6.00 | O=C1c2cc(F)c(Nc3ccncc3)cc2CN1c1cccc(Nc2ccncc2)c1 [Compound 33, 6-fluoro-5-(pyridin-4-ylamino)-2-(3-(pyridin-4-ylamino)phenyl)isoindolin-1-one] |
| > 6.00 | Cc1cc(Nc2cc(C)c3c(c2)CN(c2cccc(Nc4ccncc4)c2)C3=O)ccn1 [Compound 44, 7-methyl-5-((2-methylpyridin-4-yl)amino)-2-(3-(pyridin-4-ylamino)phenyl)isoindolin-1-one] |
| > 5.30 | O=C1c2c(F)cc(Nc3ccncc3)cc2CN1c1cccc(Nc2ccncc2)c1 [Compound 34, 7-fluoro-5-(pyridin-4-ylamino)-2-(3-(pyridin-4-ylamino)phenyl)isoindolin-1-one] |
| > 5.30 | Cc1cc(Nc2ccc3oc(-c4cccc(Nc5ccc(F)cc5)c4)nc3c2)ccn1 [Compound 43, 2-(3-((4-fluorophenyl)amino)phenyl)-N-(2-methylpyridin-4-yl)benzo[d]oxazol-5-amine] |
| > 5.30 | O=C1c2ccc(Nc3ccncc3)c(F)c2CN1c1cccc(Nc2ccncc2)c1 [Compound 32, 4-fluoro-5-(pyridin-4-ylamino)-2-(3-(pyridin-4-ylamino)phenyl)isoindolin-1-one] |
| > 5.70 | Cc1cc(Nc2cccc(-c3nc4cc(Nc5ccnc(C)c5)ccc4o3)c2)ccn1 [Compound 40, N-(2-methylpyridin-4-yl)-2-(3-((2-methylpyridin-4-yl)amino)phenyl)benzo[d]oxazol-5-amine] |
| > 5.30 | Cc1cc2c(cc1Nc1ccncc1)CN(c1cccc(Nc3ccncc3)c1)C2=O [Compound 31, 6-methyl-5-(pyridin-4-ylamino)-2-(3-(pyridin-4-ylamino)phenyl)isoindolin-1-one] |
| > 5.70 | O=C1c2ccc(Nc3ccncc3)cc2CN1c1cc(F)cc(Nc2ccncc2)c1 [Compound 37, 2-(3-fluoro-5-(pyridin-4-ylamino)phenyl)-5-(pyridin-4-ylamino)isoindolin-1-one] |
| > 6.00 | Cc1cc(Nc2cccc(N3Cc4cc(Nc5ccnc(C)c5)cc(C)c4C3=O)c2)ccn1 [Compound 45, 7-methyl-5-((2-methylpyridin-4-yl)amino)-2-(3-((2-methylpyridin-4-yl)amino)phenyl)isoindolin-1-one] |
| > 6.00 | O=C1c2ccc(Nc3ccncc3)cc2CN1c1ccc(F)c(Nc2ccncc2)c1 [Compound 38, 2-(4-fluoro-3-(pyridin-4-ylamino)phenyl)-5-(pyridin-4-ylamino)isoindolin-1-one] |
| > 6.00 | Cc1cc(Nc2ccncc2)cc(N2Cc3cc(Nc4ccncc4)ccc3C2=O)c1 [Compound 26, 2-(3-methyl-5-(pyridin-4-ylamino)phenyl)-5-(pyridin-4-ylamino)isoindolin-1-one] |
